Test results as given in US8940310B2, “Methods of treatment using TLR7 and/or TLR9 inhibitors” (Dynavax Technologies Corporation, priority 2010, dated 2015).
Entries after “also recorded” stand apart in the source; their conditions may differ.

Assays:
TLR7 and TLR9 = test: Tape stripping skin lesions in lupus prone (NZBxNZW)F1 mice; format: in vivo; design: key to Dermal inflammation: graded on a scale of 1 to 3; details: for Dermal inflammation / Epidermis thickness / Intraepithelial inflammation / Panniculum inflammation / Ulceration: histological score
Procedure: SEQ ID NO:42 (IRS) was used starting the day of the tape stripping during the entire course of the experiments (FIGS. 29A,D,E) or starting at 4 days post injury when the disease is already established (FIGS. 30A,D,E). In both cases SEQ ID NO:42 (IRS) (100 μg; s. c.) was administered twice a week. Also described is the timing of PDC depletion experiments described in FIGS. 29A,F,G. Depleting antibody to PDC anti-120G8 (250 μg; i.p.) were given at day −2 and day 0, eight hours before tape stripping and then given twice a week for the entire duration of the experiment. Experiments were stopped in between 15-23 days after initial tape stripping depending on the progression of the lesions in the untreated groups.
C57BL/6 and 129 mice were purchased from Charles River Laboratories. (NZBxNZW)F1 female mice were purchased from Jackson Laboratories and used at 18-22 weeks of age. MyD88/KO and TLR9/KO mouse colonies were maintained at Simonsen Laboratories and used with age matched C57BL/6 wild type controls at 8-12 weeks of age. Tape stripping was performed after shaving the dorsal area (3×3 cm) using 10 strokes with duct tape. IRS was administered just before tape stripping SC at a distant site. Alternatively, in (NZBxNZW)F1 mice, IRS was administered long term. In certain experiments PDC and neutrophils were depleted with 250 μg of antibody given IP at day −2 and day 0, eight hours before tape stripping. Anti-120G8 (Imgenex) was used for depletion of PDC (Asselin-Paturel et al., 2003), and anti-GR1-LY6G (clone 1A8; Biolegend) was used for depletion of neutrophils (Daley et al., 2008). […] In experiments where PDC were depleted, long term 120G8 depleting antibody was administered. Experiments in (NZBxNZW)F1 were terminated between 15-23 days after initial tape stripping, depending on the progression of the lesions in the untreated groups in each experiment. Percentage of area with open lesions in (NZBxNZW)F1 and normal mice was evaluated with Nikon software NIS-elements.
The biopsy specimens were fixed in formalin and embedded in paraffin. Sections were stained with hematoxylin-eosin. Multiple skin sections of 12-30 mice per group were evaluated in a blinded fashion. The following histological features were assessed and graded on a scale of 1 to 3: i) epidermis thickness ii) degree of ulceration iii) intraepithelial inflammation, iv) dermal inflammation, and v) panniculum inflammation. Histological grading was assigned as follows: 0, normal skin architecture, few dermal leukocytes and regular adnexa; 1, mild inflammation, slight epidermal hyperplasia and signs of dermal fibroblast proliferation; 2, moderate inflammation, noticeable epidermal hyperplasia (two- to four-fold increase in epithelial thickness) with hyperkeratosis, significant leukocyte/neutrophil-granulocyte dermal infiltrate with few macrophages, moderate fibrosclerosis of the dermis, reduction in the number of adnexa, slight degenerative changes of the hypodermic adipose tissue; 3, severe inflammation, marked epidermal hyperplasia (>four-fold increase in epithelial thickness) with hyperkeratosis, formation of keratin-filled craters and cysts, diffuse discontinuity of the epidermal layer (ulceration), extensive dermal infiltrate with abundant neutrophils and macrophages, pronounced dermal fibrosclerosis, vanishing of adnexa and evident degenerative changes of the hypodermic adipose tissue. The different parameters were scored separately and summed to obtained a total disease score (Table 22-1). Statistical significance among groups was calculated with a Mann-Whitney U-test.

TLR9 = target: T1, TLR9 (Mus musculus, UniProt Q9EQU3); test: CpG-C ISS-induced serum cytokines in 129 mice; format: in vivo; details: CpG-C ISS with IRS, serum at 6 hr, listed as IRS
T1 construct: endogenous in cells; host or cells: 129 mice, whole animal (serum IFN-alpha and IL-6)
T1 sequence (Q9EQU3 26-1032): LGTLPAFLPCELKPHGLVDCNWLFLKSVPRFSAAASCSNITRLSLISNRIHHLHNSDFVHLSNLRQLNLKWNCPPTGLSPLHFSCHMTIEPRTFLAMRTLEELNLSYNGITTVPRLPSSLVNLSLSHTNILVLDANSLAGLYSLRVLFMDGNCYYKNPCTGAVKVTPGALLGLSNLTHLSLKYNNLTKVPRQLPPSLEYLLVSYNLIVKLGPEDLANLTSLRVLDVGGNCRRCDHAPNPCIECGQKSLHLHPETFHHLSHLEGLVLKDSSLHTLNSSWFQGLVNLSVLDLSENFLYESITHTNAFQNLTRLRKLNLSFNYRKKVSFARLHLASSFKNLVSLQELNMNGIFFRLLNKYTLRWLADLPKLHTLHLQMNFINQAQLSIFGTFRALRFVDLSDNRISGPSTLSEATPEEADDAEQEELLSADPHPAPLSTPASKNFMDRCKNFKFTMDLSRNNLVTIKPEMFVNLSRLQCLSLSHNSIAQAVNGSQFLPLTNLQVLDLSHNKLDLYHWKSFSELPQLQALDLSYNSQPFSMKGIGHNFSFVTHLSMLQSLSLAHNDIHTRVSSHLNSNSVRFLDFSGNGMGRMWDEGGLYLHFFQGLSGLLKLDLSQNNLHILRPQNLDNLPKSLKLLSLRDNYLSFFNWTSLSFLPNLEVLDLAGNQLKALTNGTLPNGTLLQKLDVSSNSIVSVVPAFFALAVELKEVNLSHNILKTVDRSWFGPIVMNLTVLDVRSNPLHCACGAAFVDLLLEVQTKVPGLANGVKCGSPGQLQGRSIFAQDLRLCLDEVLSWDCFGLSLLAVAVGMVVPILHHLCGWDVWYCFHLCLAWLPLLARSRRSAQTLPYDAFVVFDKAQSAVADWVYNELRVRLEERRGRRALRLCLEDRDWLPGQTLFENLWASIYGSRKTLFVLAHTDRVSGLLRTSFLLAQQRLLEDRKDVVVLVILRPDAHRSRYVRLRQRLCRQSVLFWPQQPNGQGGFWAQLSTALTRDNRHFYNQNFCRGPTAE
Procedure: 129 mice were either left untreated or treated with CpG-C ISS (50 μg/mice) alone or with IRS (50 μg/mice) and serum was collected 6 hr later. IFN-α and IL-6 was evaluated by ELISA. n=6 mice per group±standard error of the mean.

## 5′-TGCTCCTGGAGGGGTTGT-3′ (DNA, backbone not given here) [SEQ ID NO:42]
TLR7 and TLR9; (NZBxNZW)F1, single injection prior to tape stripping, 24 hr
  induction of IFN-regulated and pro-inflammatory genes: efficiently inhibited this gene induction; also recorded: can be inhibited
TLR7 and TLR9; IRS (pre-injury)
  Total Disease Score: 3.2 ± 0.5
  Dermal inflammation: 1.3 ± 0.2
  Epidermis thickness: 0.7 ± 0.2
  Intraepithelial inflammation: 0.2 ± 0.2
  Panniculum inflammation: 0.8 ± 0.1
  Ulceration: 0.0 ± 0.0
TLR7 and TLR9; IRS (therapeutic)
  Total Disease Score: 3.5 ± 0.4
  Dermal inflammation: 1.2 ± 0.1
  Epidermis thickness: 1.0 ± 0.2
  Intraepithelial inflammation: 0.2 ± 0.2
  Panniculum inflammation: 1.0 ± 0.0
  Ulceration: 0.2 ± 0.1
TLR7 and TLR9; IRS before skin injury and for the duration, day 15-23
  lesions, share of the stripped area: less than 15%
TLR7 and TLR9; IRS beginning at day 4, day 15-23
  surface still covered by open lesions: 10%
TLR7 and TLR9; therapeutic treatment from day 4
  CLE-like phenotype / healing of established lesions: accelerated healing; also recorded: significantly ameliorated CLE-like phenotype
TLR7 and TLR9; treatment from the day of tape stripping
  disease onset (skin appearance, histology, gene signatures): able to prevent disease onset
TLR9
  CpG-ISS-induced activation, serum IFN-α and IL-6: prevented CpG-ISS-induced activation; also recorded: significantly reduced CpG-C ISS-mediated induction of cytokines
